# Molecular target: T1, human IRAK4 (Homo sapiens, UniProt Q9NWZ3)
# T1 construct: GST (N); made in house; host or cells: baculovirus-infected Hi5 (BTI-TN-5B1-4) insect cells
# T1 sequence (Q9NWZ3 1-460): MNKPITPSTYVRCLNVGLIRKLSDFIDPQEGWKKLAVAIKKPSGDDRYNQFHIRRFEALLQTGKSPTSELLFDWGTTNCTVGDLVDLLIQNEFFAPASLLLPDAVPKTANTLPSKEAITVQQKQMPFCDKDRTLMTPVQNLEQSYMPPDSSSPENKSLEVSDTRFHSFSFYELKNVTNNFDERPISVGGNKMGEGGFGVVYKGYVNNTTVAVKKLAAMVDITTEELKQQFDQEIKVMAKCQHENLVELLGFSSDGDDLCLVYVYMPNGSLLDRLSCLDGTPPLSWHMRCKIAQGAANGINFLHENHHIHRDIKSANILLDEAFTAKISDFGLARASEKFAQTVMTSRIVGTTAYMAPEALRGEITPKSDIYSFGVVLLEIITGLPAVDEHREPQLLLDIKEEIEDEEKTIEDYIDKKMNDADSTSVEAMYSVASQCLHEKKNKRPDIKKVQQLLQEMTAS
# Test: Human IRAK4 kinase activity inhibition assay (IRAK4 TR-FRET assay)
# Format: biochemical
# Conditions: 1 mM ATP, GST-human IRAK4, average or median values
# Method: The IRAK4-inhibitory activity of the inventive substances was measured in the IRAK4 TR-FRET assay (TR-FRET = Time Resolved Fluorescence Resonance Energy Transfer) described hereinafter.
# Recombinant fusion protein from N-terminal GST (glutathione S-transferase) and human IRAK4, expressed in baculovirus-infected insect cells (Hi5, BTI-TN-5B1-4, cell line purchased from Invitrogen, catalogue No. B855-02) and purified via affinity chromatography, was used as enzyme. The substrate used for the kinase reaction was the biotinylated peptide biotin-Ahx-[…] (C-terminus in amide form) which can be purchased, for example, from Biosyntan GmbH (Berlin-Buch). For the assay, 11 different concentrations in the range from 20 µM to 0.073 nM were prepared from a 2 mM DMSO solution of the test substance. 50 nl of the respective 100fold concentrated test compound solutions in DMSO were pipetted into a black low-volume 384-well microtitre plate or a black 1536-well microtiter plate (both Greiner Bio-One, Frickenhausen, Germany), 2 µl of a solution of IRAK4 in assay buffer [50 mM HEPES pH 7.5, 5mM MgCl2, 1.0 mM dithiothreitol, 30 µM activated sodium orthovanadate, 0.1% (w/v) of bovine gamma-globulin (BGG) 0.04% (v/v) nonidet-P40 (Sigma)] were added and the mixture was incubated for 15 min to allow prebinding of the substances to the enzyme prior to the kinase reaction. […] The concentration of the IRAK4 was adjusted to the respective activity of the enzyme and set such that the assay was carried out in the linear range. Typical concentrations were in the order of about 0.2 nM. The reaction was stopped by addition of 5 µl of a solution of TR-FRET detection reagents [0.1 µM streptavidin-XL665 (Cisbio Bioassays; France, catalogue No. 610SAXLG)] and 1.5 nM anti-phosphoserine antibody [Merck Millipore, "STK Antibody", catalogue No. 35-002] and 0.6 nM LANCE EU-W1024-labelled anti-mouse-IgG antibody (Perkin-Elmer, product No. AD0077; alternatively, it is possible to use a terbium cryptate-labelled anti-mouse-IgG antibody from Cisbio Bioassays) in aqueous EDTA solution (100 mM EDTA, 0.4 % [w/v] bovine serum albumin [BSA] in 25 mM HEPES pH 7.5). The resulting mixture was incubated at 22°C for 1 h to allow formation of a complex of the biotinylated phosphorylated substrate and the detection reagents. The amount of the phosphorylated substrate was then evaluated by measuring the resonance energy transfer from europium chelate-labelled anti-mouse-IgG antibody to streptavidin-XL665. To this end, the fluorescence emissions at 620 nm and 665 nm were measured after excitation at 350 nm in a TR-FRET measuring instrument, for example a Rubystar (BMG Labtechnologies, Offenburg, Germany) or a Viewlux (Perkin-Elmer). The ratio of the emissions at 665 nm and 622 nm was taken as a measure of the amount of phosphorylated substrate. The data were normalized (enzyme reaction without test substance = 0% inhibition; all other assay components but no enzyme = 100% inhibition).
row,IC50 [µM],Compound
1,0.0842,"O=S1(=O)CC[C@H](Nc2nc(N3CCC(N4CCOCC4)CC3)c3cnn(-c4cccc(C(F)(F)F)c4)c3n2)C1 [Example I-33, N-[(3S)-1,1-dioxidotetrahydrothiophen-3-yl]-4-[4-(morpholin-4-yl)piperidin-1-yl]-1-[3-(trifluoromethyl)phenyl]-1H-pyrazolo[3,4-d]pyrimidin-6-amine]"
2,0.0851,"O=S1(=O)CC[C@H](Nc2nc(N3CC(N4CCOCC4)C3)c3cnn(-c4cccc(C(F)(F)F)c4)c3n2)C1 [Example I-34, N-[(3S)-1,1-dioxidotetrahydrothiophen-3-yl]-4-[3-(morpholin-4-yl)azetidin-1-yl]-1-[3-(trifluoromethyl)phenyl]-1H-pyrazolo[3,4-d]pyrimidin-6-amine]"
3,0.0165,"CS(=O)(=O)CC1CN(c2nc(N[C@@H]3CNC(=O)C3)nc3c2cnn3-c2cccc(C(F)(F)F)c2)C1 [Example I-35, (4S)-4-[(4-{3-[(methylsulfonyl)methyl]azetidin-1-yl}-1-[3-(trifluoromethyl)phenyl]-1H-pyrazolo[3,4-d]pyrimidin-6-yl)amino]pyrrolidin-2-one]"
4,0.045,"CN1CC[C@H](Nc2nc(N3CC(CS(C)(=O)=O)C3)c3cnn(-c4cccc(C(F)(F)F)c4)c3n2)C1 [Example I-36, N-[(3S)-1-methylpyrrolidin-3-yl]-4-{3-[(methylsulfonyl)methyl]azetidin-1-yl}-1-[3-(trifluoromethyl)phenyl]-1H-pyrazolo[3,4-d]pyrimidin-6-amine]"
5,0.0162,"CN(C)C1(C)CN(c2nc(N[C@@H]3CNC(=O)C3)nc3c2cnn3-c2cccc(C(F)(F)F)c2)C1 [Example I-38, (4S)-4-({4-[3-(dimethylamino)-3-methylazetidin-1-yl]-1-[3-(trifluoromethyl)phenyl]-1H-pyrazolo[3,4-d]pyrimidin-6-yl}amino)pyrrolidin-2-one]"
6,0.0245,"CN(C)C1(C)CN(c2nc(NC3CCS(=O)(=O)CC3)nc3c2cnn3-c2cccc(C(F)(F)F)c2)C1 [Example I-39, 4-[3-(dimethylamino)-3-methylazetidin-1-yl]-N-(1,1-dioxidotetrahydro-2H-thiopyran-4-yl)-1-[3-(trifluoromethyl)phenyl]-1H-pyrazolo[3,4-d]pyrimidin-6-amine]"
7,0.25,"CC1(O)CN(c2nc(N[C@@H]3CCN(S(C)(=O)=O)C3)nc3c2cnn3-c2cccc(C(F)(F)F)c2)C1 [Example I-41-1, 3-methyl-1-(6-{[(3R)-1-(methylsulfonyl)pyrrolidin-3-yl]amino}-1-[3-(trifluoromethyl)-phenyl]-1H-pyrazolo[3,4-d]pyrimidin-4-yl)azetidin-3-ol]"
8,0.4,"CC1(O)CN(c2nc(N[C@H]3CCN(S(C)(=O)=O)C3)nc3c2cnn3-c2cccc(C(F)(F)F)c2)C1 [Example I-41-2, 3-methyl-1-(6-{[(3S)-1-(methylsulfonyl)pyrrolidin-3-yl]amino}-1-[3-(trifluoromethyl)-phenyl]-1H-pyrazolo[3,4-d]pyrimidin-4-yl)azetidin-3-ol]"
9,0.032,"CN(C)C1CN(c2nc(NC3CCS(=O)(=O)CC3)nc3c2cnn3-c2cccc(C(F)(F)F)c2)C1 [Example I-42, 4-[3-(dimethylamino)azetidin-1-yl]-N-(1,1-dioxidotetrahydro-2H-thiopyran-4-yl)-1-[3-(trifluoromethyl)phenyl]-1H-pyrazolo[3,4-d]pyrimidin-6-amine]"
10,0.28,"CC1(Nc2nc(N3CC(N4CCOCC4)C3)c3cnn(-c4cccc(C(F)(F)F)c4)c3n2)CCS(=O)(=O)C1 (centres unmarked) [Example I-43, N-(3-methyl-1,1-dioxidotetrahydrothiophen-3-yl)-4-[3-(morpholin-4-yl)azetidin-1-yl]-1-[3-(trifluoromethyl)phenyl]-1H-pyrazolo[3,4-d]pyrimidin-6-amine]"
11,0.0157,"CN(C)C1CN(c2nc(N[C@@H]3CNC(=O)C3)nc3c2cnn3-c2cccc(C(F)(F)F)c2)C1 [Example I-44, (4S)-4-({4-[3-(dimethylamino)azetidin-1-yl]-1-[3-(trifluoromethyl)phenyl]-1H-pyrazolo-[3,4-d]pyrimidin-6-yl}amino)pyrrolidin-2-one]"
12,0.0484,"O=C(O)CC1CN(c2nc(N[C@@H]3CNC(=O)C3)nc3c2cnn3-c2cccc(C(F)(F)F)c2)C1 [Example I-50, [1-(6-{[(3S)-5-oxopyrrolidin-3-yl]amino}-1-[3-(trifluoromethyl)phenyl]-1H-pyrazolo[3,4-d]pyrimidin-4-yl)azetidin-3-yl]acetic acid]"
13,0.0998,"O=S1(=O)CCN(C2CN(c3nc(NC4CC4)nc4c3cnn4-c3cccc(C(F)(F)F)c3)C2)CC1 [Example I-53, N-cyclopropyl-4-[3-(1,1-dioxidothiomorpholin-4-yl)azetidin-1-yl]-1-[3-(trifluoromethyl)-phenyl]-1H-pyrazolo[3,4-d]pyrimidin-6-amine]"
14,0.297,"CN(C)C1CN(c2nc(NC3CC(F)(F)C3)nc3c2cnn3-c2cccc(C(F)(F)F)c2)C1 [Example I-54, N-(3,3-difluorocyclobutyl)-4-[3-(dimethylamino)azetidin-1-yl]-1-[3-(trifluoromethyl)-phenyl]-1H-pyrazolo[3,4-d]pyrimidin-6-amine]"
15,0.0156,"CS(=O)(=O)[C@H]1C[C@@H](Nc2nc(N3CC(N4CCOCC4)C3)c3cnn(-c4cccc(C(F)(F)F)c4)c3n2)C1 [Example I-55, N-[cis-3-(methylsulfonyl)cyclobutyl]-4-[3-(morpholin-4-yl)azetidin-1-yl]-1-[3-(trifluoromethyl)phenyl]-1H-pyrazolo[3,4-d]pyrimidin-6-amine]"
16,0.0306,"CC(C)(O)C1CCN(c2nc(N[C@H]3C[C@@](O)(C(F)(F)F)C3)nc3c2cnn3-c2cccc(C(F)(F)F)c2)CC1 [Example I-63, trans-3-({4-[4-(2-hydroxypropan-2-yl)piperidin-1-yl]-1-[3-(trifluoromethyl)phenyl]-1H-pyrazolo[3,4-d]pyrimidin-6-yl}amino)-1-(trifluoromethyl)cyclobutanol]"
17,0.138,"CC(C)(O)C1CCN(c2nc(N[C@H]3C[C@@](C)(C(=O)O)C3)nc3c2cnn3-c2cccc(C(F)(F)F)c2)CC1 [Example I-66, cis-3-({4-[4-(2-hydroxypropan-2-yl)piperidin-1-yl]-1-[3-(trifluoromethyl)phenyl]-1H-pyrazolo[3,4-d]pyrimidin-6-yl}amino)-1-methylcyclobutanecarboxylic acid]"
18,0.0262,"O[C@H]1COC[C@@H]1Nc1nc(N2CC(N3CCOCC3)C2)c2cnn(-c3cccc(C(F)(F)F)c3)c2n1 [Example I-69, (3R,4S)-4-({4-[3-(morpholin-4-yl)azetidin-1-yl]-1-[3-(trifluoromethyl)phenyl]-1H-pyrazolo[3,4-d]pyrimidin-6-yl}amino)tetrahydrofuran-3-ol]"
19,0.0153,"CS(=O)(=O)C1CN(c2nc(N[C@H]3C[C@](C)(N)C3)nc3c2cnn3-c2cccc(C(F)(F)F)c2)C1 [Example I-71, trans-1-methyl-N^3-{4-[3-(methylsulfonyl)azetidin-1-yl]-1-[3-(trifluoromethyl)phenyl]-1H-pyrazolo[3,4-d]pyrimidin-6-yl}cyclobutane-1,3-diamine]"

row,Compound,IC50 [µM]
1,CC(C)(O)C1CCN(c2nc(N[C@@H]3CN4CCC3CC4)nc3c2cnn3-c2cccc(C(F)(F)F)c2)CC1 [Example I-64-2],0.0589

# From patent EP3800188A1, “SUBSTITUTED PYRAZOLOPYRIMIDINES AS IRAK4 INHIBITORS” (Bayer AG, priority 2019, dated 2021)
